Species on record: Rattus norvegicus
Experiment: DrugMatrix - Regimen: Daily Repeat
Type: toxicity, organism-based, Sprague-Dawley
Parameters: regimen Daily Repeat, gender Male, age 6-8 weeks
Conditions: in vivo, po, route oral GAVAGE, vehicle .5 % CMC; for BASOPHIL / EOSINOPHIL / ERYTHROCYTE COUNT / HEMATOCRIT / HEMOGLOBIN / LEUKOCYTE COUNT / LYMPHOCYTE / MEAN CORPUSCULAR HEMOGLOBIN / MEAN CORPUSCULAR HEMOGLOBIN CONCENTRATION / MEAN CORPUSCULAR VOLUME / MONOCYTE / NEUTROPHIL / PLATELET COUNT: tissue Blood; for ALANINE AMINOTRANSFERASE / ALBUMIN / ALKALINE PHOSPHATASE / ASPARTATE AMINOTRANSFERASE / BLOOD UREA NITROGEN / CARBON DIOXIDE / CHLORIDE / CHOLESTEROL / CREATINE PHOSPHOKINASE / CREATININE / GLUCOSE / LACTATE DEHYDROGENASE / LIPASE / PHOSPHORUS / POTASSIUM / SODIUM / TOTAL BILIRUBIN / TOTAL PROTEIN / URIC ACID: tissue Plasma
[1] = 0 mg/kg, 96 h, dose level Control, time 4 day
[2] = 0 mg/kg, […], dose level Control, time 6 day
[3] = 0 mg/kg, […], dose level Control, time 14 day
[4] = […], 96 h, dose 4.6 mg/Kg, dose level High, time 4 day
[5] = […], dose 4.6 mg/Kg, dose level High, time 6 day
[6] = […], dose 4.6 mg/Kg, dose level High, time 14 day

## COc1ccc(C(=O)Nc2c(Cl)c[n+]([O-])cc2Cl)c2ccc(C(F)(F)F)nc12 [SCH-351591]
[1]
  BASOPHIL: 0.5%
  EOSINOPHIL: 1.85%
  ERYTHROCYTE COUNT: 6.99 x10E6/uL
  HEMATOCRIT: 43.82%
  HEMOGLOBIN: 13.87 G/DL
  LEUKOCYTE COUNT: 12.01 x10E3/uL
  LYMPHOCYTE: 82.07%
  MEAN CORPUSCULAR HEMOGLOBIN: 19.8 pg
  MEAN CORPUSCULAR HEMOGLOBIN CONCENTRATION: 31.63 G/DL
  MEAN CORPUSCULAR VOLUME: 62.7 fL
  MONOCYTE: 2.6%
  NEUTROPHIL: 12.38%
  PLATELET COUNT: 1155 x10E3/uL
  ALANINE AMINOTRANSFERASE: 31.67 u/L
  ALBUMIN: 4.12 G/DL
  ALKALINE PHOSPHATASE: 396 u/L
  ASPARTATE AMINOTRANSFERASE: 75.67 u/L
  BLOOD UREA NITROGEN: 17.5 mg/dL
  CARBON DIOXIDE: 28.83 mmol/L
  CHLORIDE: 103.83 MEQ/L
  CHOLESTEROL: 84.83 mg/dL
  CREATINE PHOSPHOKINASE: 597.17 u/L
  CREATININE: 0.3 mg/dL
  GLUCOSE: 161.5 mg/dL
  LACTATE DEHYDROGENASE: 138.67 u/L
  LIPASE: 11.5 u/L
  PHOSPHORUS: 11.58 mg/dL
  POTASSIUM: 6.87 MEQ/L
  SODIUM: 146.83 MEQ/L
  TOTAL BILIRUBIN: 0.38 mg/dL
  TOTAL PROTEIN: 6.33 G/DL
  URIC ACID: 1.37 mg/dL
[2]
  BASOPHIL: 0.37%
  EOSINOPHIL: 0.38%
  ERYTHROCYTE COUNT: 6.89 x10E6/uL
  HEMATOCRIT: 47.38%
  HEMOGLOBIN: 14.8 G/DL
  LEUKOCYTE COUNT: 13.59 x10E3/uL
  LYMPHOCYTE: 80.27%
  MEAN CORPUSCULAR HEMOGLOBIN: 21.52 pg
  MEAN CORPUSCULAR HEMOGLOBIN CONCENTRATION: 31.22 G/DL
  MEAN CORPUSCULAR VOLUME: 68.83 fL
  MONOCYTE: 2.78%
  NEUTROPHIL: 15.65%
  PLATELET COUNT: 1330.17 x10E3/uL
  ALANINE AMINOTRANSFERASE: 36 u/L
  ALBUMIN: 4.03 G/DL
  ALKALINE PHOSPHATASE: 354.17 u/L
  ASPARTATE AMINOTRANSFERASE: 76.5 u/L
  BLOOD UREA NITROGEN: 19.33 mg/dL
  CARBON DIOXIDE: 27.83 mmol/L
  CHLORIDE: 105.5 MEQ/L
  CHOLESTEROL: 68.83 mg/dL
  CREATINE PHOSPHOKINASE: 383.83 u/L
  CREATININE: 0.35 mg/dL
  GLUCOSE: 165.83 mg/dL
  LACTATE DEHYDROGENASE: 155.17 u/L
  LIPASE: 9.83 u/L
  PHOSPHORUS: 12.4 mg/dL
  POTASSIUM: 6.9 MEQ/L
  SODIUM: 147.33 MEQ/L
  TOTAL BILIRUBIN: 0.52 mg/dL
  TOTAL PROTEIN: 6.42 G/DL
  URIC ACID: 1.6 mg/dL
[3]
  BASOPHIL: 0.38%
  EOSINOPHIL: 0.6%
  ERYTHROCYTE COUNT: 7.78 x10E6/uL
  HEMATOCRIT: 48.3%
  HEMOGLOBIN: 15.42 G/DL
  LEUKOCYTE COUNT: 13.55 x10E3/uL
  LYMPHOCYTE: 81.18%
  MEAN CORPUSCULAR HEMOGLOBIN: 19.8 pg
  MEAN CORPUSCULAR HEMOGLOBIN CONCENTRATION: 31.92 G/DL
  MEAN CORPUSCULAR VOLUME: 62.08 fL
  MONOCYTE: 1.72%
  NEUTROPHIL: 15.17%
  PLATELET COUNT: 1083.83 x10E3/uL
  ALANINE AMINOTRANSFERASE: 36.83 u/L
  ALBUMIN: 4.13 G/DL
  ALKALINE PHOSPHATASE: 328.17 u/L
  ASPARTATE AMINOTRANSFERASE: 74.83 u/L
  BLOOD UREA NITROGEN: 18.67 mg/dL
  CARBON DIOXIDE: 29.33 mmol/L
  CHLORIDE: 105.17 MEQ/L
  CHOLESTEROL: 72 mg/dL
  CREATINE PHOSPHOKINASE: 217.67 u/L
  CREATININE: 0.45 mg/dL
  GLUCOSE: 151.17 mg/dL
  LACTATE DEHYDROGENASE: 133.17 u/L
  LIPASE: 14.5 u/L
  PHOSPHORUS: 11.55 mg/dL
  POTASSIUM: 6.77 MEQ/L
  SODIUM: 149.33 MEQ/L
  TOTAL BILIRUBIN: 0.37 mg/dL
  TOTAL PROTEIN: 6.62 G/DL
  URIC ACID: 1.57 mg/dL
[4]
  BASOPHIL: 0.27%
  EOSINOPHIL: 1.13%
  ERYTHROCYTE COUNT: 6.53 x10E6/uL
  HEMATOCRIT: 40.97%
  HEMOGLOBIN: 13.13 G/DL
  LEUKOCYTE COUNT: 18.12 x10E3/uL
  LYMPHOCYTE: 79.83%
  MEAN CORPUSCULAR HEMOGLOBIN: 20.13 pg
  MEAN CORPUSCULAR HEMOGLOBIN CONCENTRATION: 32.1 G/DL
  MEAN CORPUSCULAR VOLUME: 62.73 fL
  MONOCYTE: 2.33%
  NEUTROPHIL: 15.77%
  PLATELET COUNT: 1324.67 x10E3/uL
  ALANINE AMINOTRANSFERASE: 40.33 u/L
  ALBUMIN: 3.93 G/DL
  ALKALINE PHOSPHATASE: 341 u/L
  ASPARTATE AMINOTRANSFERASE: 77 u/L
  BLOOD UREA NITROGEN: 21.33 mg/dL
  CARBON DIOXIDE: 23.33 mmol/L
  CHLORIDE: 105 MEQ/L
  CHOLESTEROL: 88 mg/dL
  CREATINE PHOSPHOKINASE: 540.67 u/L
  CREATININE: 0.4 mg/dL
  GLUCOSE: 177 mg/dL
  LACTATE DEHYDROGENASE: 256 u/L
  LIPASE: 18 u/L
  PHOSPHORUS: 12.67 mg/dL
  POTASSIUM: 6.37 MEQ/L
  SODIUM: 146.33 MEQ/L
  TOTAL BILIRUBIN: 0.37 mg/dL
  TOTAL PROTEIN: 6.23 G/DL
  URIC ACID: 1.67 mg/dL
[5]
  BASOPHIL: 0.33%
  EOSINOPHIL: 0.37%
  ERYTHROCYTE COUNT: 7.26 x10E6/uL
  HEMATOCRIT: 48.6%
  HEMOGLOBIN: 14.77 G/DL
  LEUKOCYTE COUNT: 20.98 x10E3/uL
  LYMPHOCYTE: 75.93%
  MEAN CORPUSCULAR HEMOGLOBIN: 20.37 pg
  MEAN CORPUSCULAR HEMOGLOBIN CONCENTRATION: 30.33 G/DL
  MEAN CORPUSCULAR VOLUME: 67.07 fL
  MONOCYTE: 2.13%
  NEUTROPHIL: 19.93%
  PLATELET COUNT: 1217.67 x10E3/uL
  ALANINE AMINOTRANSFERASE: 24.33 u/L
  ALBUMIN: 3.9 G/DL
  ALKALINE PHOSPHATASE: 313.33 u/L
  ASPARTATE AMINOTRANSFERASE: 61.33 u/L
  BLOOD UREA NITROGEN: 17.67 mg/dL
  CARBON DIOXIDE: 25.67 mmol/L
  CHLORIDE: 108.33 MEQ/L
  CHOLESTEROL: 80.67 mg/dL
  CREATINE PHOSPHOKINASE: 190.33 u/L
  CREATININE: 0.47 mg/dL
  GLUCOSE: 161 mg/dL
  LACTATE DEHYDROGENASE: 82 u/L
  LIPASE: 43.33 u/L
  PHOSPHORUS: 12.93 mg/dL
  POTASSIUM: 6.5 MEQ/L
  SODIUM: 149.33 MEQ/L
  TOTAL BILIRUBIN: 0.43 mg/dL
  TOTAL PROTEIN: 6.13 G/DL
  URIC ACID: 1.47 mg/dL
[6]
  BASOPHIL: 0.38%
  EOSINOPHIL: 0.52%
  ERYTHROCYTE COUNT: 7.4 x10E6/uL
  HEMATOCRIT: 46.48%
  HEMOGLOBIN: 14.82 G/DL
  LEUKOCYTE COUNT: 23.35 x10E3/uL
  LYMPHOCYTE: 67.1%
  MEAN CORPUSCULAR HEMOGLOBIN: 20.06 pg
  MEAN CORPUSCULAR HEMOGLOBIN CONCENTRATION: 31.86 G/DL
  MEAN CORPUSCULAR VOLUME: 62.92 fL
  MONOCYTE: 1.96%
  NEUTROPHIL: 28.36%
  PLATELET COUNT: 1247.4 x10E3/uL
  ALANINE AMINOTRANSFERASE: 34.6 u/L
  ALBUMIN: 3.96 G/DL
  ALKALINE PHOSPHATASE: 330.4 u/L
  ASPARTATE AMINOTRANSFERASE: 65.6 u/L
  BLOOD UREA NITROGEN: 21 mg/dL
  CARBON DIOXIDE: 26.2 mmol/L
  CHLORIDE: 106.4 MEQ/L
  CHOLESTEROL: 70 mg/dL
  CREATINE PHOSPHOKINASE: 225.2 u/L
  CREATININE: 0.48 mg/dL
  GLUCOSE: 157.4 mg/dL
  LACTATE DEHYDROGENASE: 185.6 u/L
  LIPASE: 29.2 u/L
  PHOSPHORUS: 11.86 mg/dL
  POTASSIUM: 6.36 MEQ/L
  SODIUM: 149.8 MEQ/L
  TOTAL BILIRUBIN: 0.38 mg/dL
  TOTAL PROTEIN: 6.36 G/DL
  URIC ACID: 1.84 mg/dL

Source: ChEMBL document CHEMBL3885881, “DrugMatrix”
